Laboratory results as given in patent US9538774B2, “Method of feeding livestock to improve carcass characteristics” (Value-Added Science & Technology, LLC., priority 2012, dated 2017).
Entries after “also recorded” stand apart in the source; their conditions may differ.

Assays:
swine = settings: cited from earlier work
[1] = system: commercial finishing pigs; assay: Example 2 feeding study: CPFA with and without ractopamine in a 40% DDGS diet; type: in vivo
Protocol: A second study was conducted to evaluate the effects of supplementation of CPFA, with and without ractopamine, in a diet containing a high level (40%) of DDGS, on growth performance, carcass characteristics, meat and fat quality in commercial finishing pigs. The experimental diets over a six-week feeding period were a control diet without CPFA and a diet containing 0.0375% CPFA for six weeks; then for the last three weeks a diet was fed that included ractopamine at 4.5 grams per ton for each of the control and CPFA diets. (See FIG. 4). CPFA was added to replace choice white grease in the control diet. As discussed below, no treatment effects on growth performance were observed nor for HCW, dressing percentage or loin muscle, ultimate pH, color or marbling.
Pig body weight (BW) on a pen basis was measured initially and at the end of weeks 3 and 6 to calculate average daily gain (ADG). On each weigh day, feed disappearance was measured to calculate average daily feed intake (ADFI) of pigs on pen basis. Pen ADG and ADFI were, in turn, used to calculate feed conversion ratio (F:G).
Pigs were all harvested on the same day and also weighed individually one day before harvest to obtain a final live BW. HCW was measured on carcasses immediately after harvest. Live BW and HCW of pigs were used to calculate dressing percentage using the following equation: dressing %=(HCW/live BW)×100. Backfat (BF) and loin depth (LD) were measured between the 3rd and 4th rib on each carcass using Fat-O-Meater (Generation II). Percentage of fat-free carcass lean was calculated by Fat-O-Meater using the values of backfat depth and loin depth.
One barrow and one gilt from each pen weighing closest to the mean BW of their pen were selected for evaluation of meat and belly fat quality. Twenty-four hours after carcasses were chilled at 4° C., pH of loin muscle (LM) was measured at the 10th rib using a pH meter. The pH meter was calibrated at the temperature of the LM with pH 4 and 7 buffers. After pH measurement, carcasses were fabricated. Loin muscle samples at the 10th rib were collected for evaluation of meat quality.
Each LM sample was separated into two equal halves, and vacuum-packaged and frozen at −20° C. until analysis. One section of LM sample was measured for Minolta color (L*: lightness; a*: redness; b*: yellowness), loin purge, chop purge, and Instron force (a measurement correlated with tenderness and chewiness). Japanese color score (1=extremely pale to 6=extremely dark; NPPC, 2000) and marbling score (1=1% intramuscular fat to 10=10% intramuscular fat; NPPC, 2000) were also determined by trained panelists.
The other section of the LM sample was used for sensory evaluation. Sensory assessment was performed according to the procedure described by the American Meat Science Association (1995). Samples of LM were thawed at 4° C. overnight and cut into chops approximately 1 inch thick. The chops were weighed before and immediately after cooking to determine cooking loss. After cooking, trained panelists evaluated chops for juiciness, tenderness, chewiness, flavor and off-flavor using a 10-point scale (1=extremely dry, tough, not chewy, none, or none, to 10=extremely juicy, tender, chewy, intense, or intense, respectively). […]
To determine the CPFA residue in carcass fat, each of 6 (3 barrows, 3 gilts) belly fat samples from the third section were randomly selected in control and experimental treatments. Samples were sent for analysis of individual CPFA using HPLC according to the method described by Wood (1986).
All data were analyzed using the MIXED procedure of SAS Inst. Inc. (Cary, N.C.). Pen was used as the experimental unit for all responses. The statistical model included the fixed effects of CPFA, ractopamine, CPFA×ractopamine interactions, and random effect of block. Live BW before harvest and sex were used as the covariates in analysis of carcass characteristics, meat and fat quality, if the effects of these covariates were significant (P<0.05). […]

[2] = 10 or 20 ppm for 25 to 41 days pre-slaughter (Carr et. al., 2005)
[3] = 10 ppm for 28 days (Stoller et. al., 2003)
[4] = 10 ppm for 35 days prior to slaughter (Aalhus, et. al., 1990)
[5] = 40% DDGS diet, CPFA 0.0375% six weeks, ractopamine 4.5 grams per ton last three weeks
[6] = loin muscle, ractopamine 4.5 grams/ton
[7] = ractopamine 4.5 grams per ton last three weeks
[8] = sensory panel, 10-point scale, each additive alone
[9] = sensory panel, ractopamine 4.5 grams/ton

CC(CCc1ccc(O)cc1)NCC(O)c1ccc(O)cc1 (centres unmarked) [ractopamine]
color scores (swine; [2]): poorer
flavor scores (swine; [2]): reduced
tenderness (swine; [2]): reduced
Instron force of loin muscle (swine; [3]): increased
chewiness score (swine; [3]): increased
color score (swine; [3]): reduced
tenderness score (swine; [3]): reduced
hardness of fat samples taken from the loin (swine; [4]): reduced
sheer force of loin muscle (swine; [4]): increased
average daily feed intake (ADFI) [1, 5]: affected
average daily gain (ADG) [1, 5]: affected; also recorded: statistically significant positive effects
feed conversion ratio (F:G) [1, 5]: statistically significant positive effects
weight at harvest (final BW) [1, 5]: affected; also recorded: statistically significant positive effects
Instron force of LM samples ([1]; loin muscle, CPFA 0.0375% six weeks, ractopamine 4.5 grams/ton): did affect; also recorded: increase
lightness of LM [1, 6]: did affect
redness (Minolta a*) of LM [1, 6]: did affect; also recorded: reductions
yellowness (Minolta b*) of LM [1, 6]: did affect; also recorded: reductions
back fat [1, 7]: reduction
increase of the measure of carcass lean [1, 7]: 2%
loin depth [1, 7]: increase
carcass lean % ([1]; ractopamine 4.5 grams/ton, effect in words): statistically significant positive effects
juiciness score [1, 8]: Neither CPFA nor ractopamine alone affected
off-flavor score [1, 8]: Neither CPFA nor ractopamine alone affected
chewiness [1, 9]: increased
flavor score [1, 9]: reduction
tenderness [1, 9]: reduced
